In brackets after ≈: the same amount, converted by molar mass. Activity calls are given as the source filed them. The rule behind the calls is not given here.
Assays:
[1] = biological target: T1, Receptor-type tyrosine-protein phosphatase C (Homo sapiens) (UniProt P08575); test: Binding Intensity was determined against CD45+ HH-leukemic cells at 5 ug/mL; No change; format: cell-based
T1 sequence (whole entry): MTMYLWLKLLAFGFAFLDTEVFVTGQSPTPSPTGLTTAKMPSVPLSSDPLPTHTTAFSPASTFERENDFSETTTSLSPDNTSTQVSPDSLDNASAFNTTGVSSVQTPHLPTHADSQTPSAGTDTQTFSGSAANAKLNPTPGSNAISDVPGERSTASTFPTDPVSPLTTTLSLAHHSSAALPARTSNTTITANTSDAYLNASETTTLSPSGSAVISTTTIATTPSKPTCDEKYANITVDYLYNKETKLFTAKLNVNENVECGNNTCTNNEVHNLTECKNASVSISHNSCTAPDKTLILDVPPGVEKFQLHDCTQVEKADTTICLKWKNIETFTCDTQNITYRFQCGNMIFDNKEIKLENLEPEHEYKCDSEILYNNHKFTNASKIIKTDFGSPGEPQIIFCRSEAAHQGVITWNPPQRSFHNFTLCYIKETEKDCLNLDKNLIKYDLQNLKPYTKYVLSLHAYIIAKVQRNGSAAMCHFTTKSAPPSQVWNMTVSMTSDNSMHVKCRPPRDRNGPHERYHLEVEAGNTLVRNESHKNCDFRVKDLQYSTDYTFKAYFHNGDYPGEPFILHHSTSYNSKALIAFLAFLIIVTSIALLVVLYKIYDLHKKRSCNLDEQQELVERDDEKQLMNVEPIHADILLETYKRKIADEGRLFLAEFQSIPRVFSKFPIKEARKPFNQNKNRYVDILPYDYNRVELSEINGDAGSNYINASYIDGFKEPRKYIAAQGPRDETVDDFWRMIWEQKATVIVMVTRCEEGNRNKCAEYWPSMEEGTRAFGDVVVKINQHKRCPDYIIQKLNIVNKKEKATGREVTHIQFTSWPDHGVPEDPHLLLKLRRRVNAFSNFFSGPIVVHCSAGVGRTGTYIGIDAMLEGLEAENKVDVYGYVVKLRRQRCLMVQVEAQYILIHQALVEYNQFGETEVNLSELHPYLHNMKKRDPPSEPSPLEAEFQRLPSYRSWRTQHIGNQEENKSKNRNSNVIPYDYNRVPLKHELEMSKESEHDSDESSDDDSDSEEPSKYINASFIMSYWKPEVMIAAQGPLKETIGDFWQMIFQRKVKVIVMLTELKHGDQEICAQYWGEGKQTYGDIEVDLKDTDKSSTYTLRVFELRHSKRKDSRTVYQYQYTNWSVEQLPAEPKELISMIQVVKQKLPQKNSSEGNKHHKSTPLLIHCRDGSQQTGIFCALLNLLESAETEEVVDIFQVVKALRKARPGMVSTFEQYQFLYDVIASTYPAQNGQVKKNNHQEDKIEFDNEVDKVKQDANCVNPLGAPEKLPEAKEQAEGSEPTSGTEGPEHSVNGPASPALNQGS

T-cell = test: Cytotoxicity in HH T-lymphocytic leukemia cells; format: functional, cell-based; conditions: Homo sapiens
[2] = biological target: T-cell surface glycoprotein CD4 (Homo sapiens) (UniProt P01730); test: Binding Intensity against CD4+ HH-leukemic cells at 5 ug/mL.; format: cell-based
HH-leukemic [3] = test: Binding Intensity against CD11C+ HH-leukemic cells at 5 ug/mL.; format: cell-based; conditions: Homo sapiens
[4] = biological target: T1, Receptor-type tyrosine-protein phosphatase C (Homo sapiens); test: Binding Intensity against CD45+ HH-leukemic cells at 5 ug/mL; format: cell-based
HH-leukemic [5] = test: Binding Intensity against CD11C+ HH-leukemic cells at 5 ug/mL; format: cell-based; conditions: Homo sapiens
[6] = biological target: T-cell surface glycoprotein CD4 (Homo sapiens) (UniProt P01730); test: Binding Intensity against CD4+ HH-leukemic cells at 5 ug/mL; format: cell-based

Row | SMILES | Binding intensity [1] | IC50 (T-cell) | Binding intensity [2] | Binding intensity (HH-leukemic [3]) | Binding intensity [4] | Binding intensity (HH-leukemic [5]) | Binding intensity [6]
1 | C/C(=N\Nc1ccc([N+](=O)[O-])cc1)c1ccc(O)cc1 | inactive | 4.1 µg/mL (≈ 15.1 µM) |  |  |  |  | 
2 | C/C(=N/Nc1ccc([N+](=O)[O-])cc1)C1C(=O)NC(=O)NC1=O | inactive | > 10 µg/mL | No change | No change |  |  | 
3 | O=[N+]([O-])c1ccc(NN=C(c2ccc(O)cc2)c2ccc(O)cc2)c([N+](=O)[O-])c1 [SIVIFENE] |  | 3.2 µg/mL (≈ 8.11 µM) | No change |  | 50% | 20% | 
4 | CN1C(=O)C(C2(C3C(=O)N(C)C(=O)N(C)C3=O)C(=O)Nc3ccccc32)C(=O)N(C)C1=O | inactive | > 10 µg/mL | No change | No change |  |  | 
5 | O=[N+]([O-])c1cc([N+](=O)[O-])c(NN=C(c2ccc(O)cc2)c2ccc(O)cc2)cc1Cl | inactive | 1.5 µg/mL (≈ 3.5 µM) | No change | No change |  |  | 
6 | O=C1NC(=O)C(C(c2ccnc3ccccc23)C2C(=O)NC(=O)NC2=O)C(=O)N1 |  | > 10 µg/mL | No change | No change | 25% |  | 
7 | O=[N+]([O-])c1ccc(NN=C(c2ccccc2)c2ccccc2)c([N+](=O)[O-])c1 | inactive | > 10 µg/mL | No change | No change |  |  | 
8 | Nc1ccc(C(=NNc2ccc([N+](=O)[O-])cc2[N+](=O)[O-])c2ccc(N)cc2)cc1 |  | 5 µg/mL (≈ 12.7 µM) | No change | No change | 25% |  | 
9 | O=C1NC(=O)C(/C(=N\Nc2ccc([N+](=O)[O-])cc2[N+](=O)[O-])c2ccc(O)cc2)C(=O)N1 | inactive | > 10 µg/mL | No change | No change |  |  | 
10 | O=C1NC(=O)C(C(c2cccnc2)C2C(=O)NC(=O)NC2=O)C(=O)N1 |  | > 10 µg/mL |  |  |  |  | 
11 | O=[N+]([O-])c1ccc(NN=C(c2ccc(OP(=O)(O)O)cc2)c2ccc(OP(=O)(O)O)cc2)c([N+](=O)[O-])c1 | inactive | > 10 µg/mL | No change | No change |  |  | 
12 | O=[N+]([O-])c1ccccc1NN=C(c1ccc(O)cc1)c1ccc(O)cc1 | inactive | 2.7 µg/mL (≈ 7.73 µM) | No change | No change |  |  | 
13 | COc1ccc(C(=NNc2ccc([N+](=O)[O-])cc2[N+](=O)[O-])c2ccc(OC)cc2)cc1 | inactive | > 10 µg/mL |  |  |  | 25% | 25%
14 | O=C(O)CC/N=C/C1C(=O)NC(=O)NC1=O | inactive | > 12 µg/mL | No change | No change |  |  | 
15 | C/C(=N/Nc1ccc([N+](=O)[O-])cc1[N+](=O)[O-])C1C(=O)N(C)C(=O)N(C)C1=O |  | 10 µg/mL (≈ 26.4 µM) |  | No change |  |  | 
16 | O=C(O)CCCCC/N=C/C1C(=O)NC(=O)NC1=O | inactive | > 10 µg/mL | No change | No change |  |  | 
17 | Cl.O=C1N=C2C(=Nc3ccccc32)N1c1ccc(O)cc1 | inactive | > 10 µg/mL | No change | No change |  |  | 
18 | O=C1NC(=O)C(C2(C3C(=O)NC(=O)NC3=O)C(=O)Nc3ccccc32)C(=O)N1 | inactive | > 10 µg/mL | No change | No change |  |  | 
19 | O=C1NC(=O)C(/C=N\Nc2ccc([N+](=O)[O-])cc2)C(=O)N1 | inactive | > 6 µg/mL | No change | No change |  |  | 
20 | O=C1NC(=O)C(/C(=N\Nc2ccc([N+](=O)[O-])cc2[N+](=O)[O-])c2ccccc2)C(=O)N1 | inactive | > 10 µg/mL | No change | No change |  |  | 
21 | CS(=O)(=O)Oc1ccc(C(=NNc2ccc([N+](=O)[O-])cc2[N+](=O)[O-])c2ccc(OS(C)(=O)=O)cc2)cc1 | inactive | > 10 µg/mL | No change | No change |  |  | 
22 | O=[N+]([O-])c1ccc(NN=C(c2ccc(NS(=O)(=O)c3ccccc3)cc2)c2ccc(NS(=O)(=O)c3ccccc3)cc2)c([N+](=O)[O-])c1 |  | 6 µg/mL (≈ 8.92 µM) |  |  |  |  | 
23 | O=[N+]([O-])c1ccc(N/N=C/c2ccc(O)cc2)cc1 | inactive | 5 µg/mL (≈ 19.4 µM) |  |  |  |  | 
24 | C/C(=N/Nc1ccc([N+](=O)[O-])cc1[N+](=O)[O-])C1C(=O)NC(=O)NC1=O | inactive | 3.5 µg/mL (≈ 9.99 µM) | No change | No change |  |  | 
25 | CN1C(=O)C(C(c2ccnc3ccccc23)C2C(=O)N(C)C(=O)N(C)C2=O)C(=O)N(C)C1=O |  | > 10 µg/mL |  |  |  |  | 
26 | CN1C(=O)C(/C=N\Nc2ccc([N+](=O)[O-])cc2[N+](=O)[O-])C(=O)N(C)C1=O |  | > 8 µg/mL |  |  |  |  | 
27 | O=C(O)CCC/N=C(\c1ccccc1)C1C(=O)NC(=O)NC1=O | inactive | > 10 µg/mL | No change | No change |  |  | 
28 | O=C(O)CCC/N=C/C1C(=O)NC(=O)NC1=O |  | 3.5 µg/mL (≈ 14.5 µM) | No change | No change | 25% |  | 

Source: ChEMBL document CHEMBL1134984, “Anticancer activity for 4,4'-dihydroxybenzophenone-2,4-dinitrophenylhydrazone (A-007) analogues and their abilities to interact with lymphoendothelial cell surface markers” (Bioorg Med Chem Lett, 2002)
